In ChEMBL document CHEMBL5233220, “A review of currently identified small molecule modulators of microRNA function” (Eur J Med Chem, 2020):
pEC50, pIC50, pKd: −log10 of the molar value. “And” between values parts separate entries of the source, which are not always exact repeats. Equal values may be shown once. Where a name gives a salt, the structure may show the parent alone. One block for each molecule: values may come before it.

What was measured:
[1] = Binding affinity to miR-96 (unknown origin) assessed as dissociation constant; parameters: species or system Homo sapiens
[2] = Binding affinity to pre-miR-21 (unknown origin) at A bulge assessed as dissociation constant by dicer assay
[3] = Inhibition of pre-miR-21 (unknown origin) by FP assay
[4] = Inhibition of pre-miR-373 (unknown origin) by FRET assay
[5] = Inhibition of pre-miR-372 (unknown origin) by FRET assay
[6] = Binding affinity to pre-miR-373 (unknown origin) assessed as dissociation constant
[7] = Inhibition of pre-miR-373 (unknown origin) at 250 uM by FRET assay relative to control
[8] = Activation of miR-122 (unknown origin) assessed as relative light unit by luciferase assay; conditions: filed as activator
[9] = molecular target: T1, Protein argonaute-2 (Homo sapiens, UniProt Q9UKV8); test: Binding affinity to AGO2 (unknown origin) assessed as dissociation constant by RIP assay
[10] = test system: BCL1; test: Inhibition of cell growth in mouse BCL1 cells; type: functional, cell-based
[11] = Inhibition of miR-21 in human HeLa cells by luciferase assay; type: cell-based
[12] = test system: HeLa; test: Inhibition of miR-21 in human HeLa cells by qRT-PCR assay relative to control; type: cell-based; conditions: dose or concentration not given here
[13] = test system: HeLa; test: Inhibition of pre-miR-21 in human HeLa cells by qRT-PCR assay relative to control; type: cell-based; conditions: dose or concentration not given here
[14] = molecular target: T1, Protein argonaute-2; test: Inhibition of AGO2 (unknown origin)
[15] = test system: HeLa; test: Inhibition of miR-10b maturation in human HeLa cells at 100 uM by luciferase assay relative to control; type: cell-based
[16] = test system: HeLa; test: Inhibition of pre-miR-10b maturation in human HeLa cells at 100 uM by luciferase assay relative to control; type: cell-based
[17] = Binding affinity to miR-10b (unknown origin) assessed as dissociation constant
[18] = test system: MCF7; test: Inhibition of miR-122 in human MCF7 cells relative to control; type: cell-based; conditions: dose or concentration not given here
[19] = test system: HeLa; test: Inhibition of miR-96 maturation in human HeLa cells at 40 uM by luciferase assay relative to control; type: cell-based
[20] = Binding affinity to pre-miR-21 (unknown origin) assessed as dissociation constant
[21] = Binding affinity to pre-miR-21 (unknown origin) assessed as dissociation constant by fluorescence-based assay
[22] = Inhibition of miR-122 (unknown origin) by luciferase assay
[23] = test system: Huh-7; test: Inhibition of miR-122 in human Huh-7 cells relative to control; type: cell-based; conditions: dose or concentration not given here
[24] = Inhibition of miR-122 (unknown origin) assessed as relative light unit by luciferase assay
[25] = Inhibition of pre-miR-21 (unknown origin) at 5 uM by FP assay relative to control
[26] = Inhibition of human topoisomerase 2
[27] = Binding affinity to pre-miR-21 (unknown origin) assessed as melting temperature by differential scanning fluorimetry analysis
[28] = Binding affinity to pre-miR-21 (unknown origin) assessed as dissociation constant by microarray assay
[29] = Inhibition of pre-miR-372 (unknown origin)
[30] = Activation of miR-122 (unknown origin) by luciferase assay
[31] = Inhibition of pre-miR-21 (unknown origin)
[32] = Binding affinity to pre-miR-21 (unknown origin) at U bulge assessed as dissociation constant by dicer assay
[33] = Binding affinity to miR-18a (unknown origin) assessed as dissociation constant
[34] = Inhibition of miR-18a (unknown origin) […] by qRT-PCR analysis
[35] = Inhibition of miR-96 (unknown origin); parameters: species or system Homo sapiens
[36] = Binding affinity to miR-27a (unknown origin) assessed as dissociation constant by FP assay
[37] = Inhibition of miR-27a (unknown origin) maturation at 5 uM relative to control

T1 sequence (Q9UKV8 whole entry): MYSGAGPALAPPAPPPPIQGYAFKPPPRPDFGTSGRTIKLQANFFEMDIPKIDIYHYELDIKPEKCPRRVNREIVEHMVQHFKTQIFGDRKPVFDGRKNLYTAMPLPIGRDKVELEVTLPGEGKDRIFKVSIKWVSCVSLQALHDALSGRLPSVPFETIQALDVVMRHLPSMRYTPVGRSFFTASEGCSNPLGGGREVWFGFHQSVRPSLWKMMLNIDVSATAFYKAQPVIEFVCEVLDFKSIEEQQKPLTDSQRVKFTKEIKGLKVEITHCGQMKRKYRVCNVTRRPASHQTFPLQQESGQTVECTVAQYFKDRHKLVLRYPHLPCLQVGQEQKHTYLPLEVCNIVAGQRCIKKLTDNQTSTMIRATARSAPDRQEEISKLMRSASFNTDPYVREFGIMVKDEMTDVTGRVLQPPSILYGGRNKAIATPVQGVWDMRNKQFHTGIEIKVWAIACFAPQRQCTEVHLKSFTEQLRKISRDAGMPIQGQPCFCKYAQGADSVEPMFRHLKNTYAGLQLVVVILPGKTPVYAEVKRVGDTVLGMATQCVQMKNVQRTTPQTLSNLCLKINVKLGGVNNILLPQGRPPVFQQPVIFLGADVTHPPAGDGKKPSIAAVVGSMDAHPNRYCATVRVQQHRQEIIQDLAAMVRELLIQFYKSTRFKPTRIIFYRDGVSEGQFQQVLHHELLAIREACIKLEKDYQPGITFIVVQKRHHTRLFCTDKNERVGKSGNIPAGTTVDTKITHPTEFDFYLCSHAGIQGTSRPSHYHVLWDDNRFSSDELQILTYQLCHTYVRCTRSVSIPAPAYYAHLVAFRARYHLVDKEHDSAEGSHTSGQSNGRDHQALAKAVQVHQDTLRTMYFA

Compound: NC(Cc1cc(O)c(O)cc1O)C(=O)O (stereo unspecified)
- pIC50 [3]: 5.15

Compound: CN(C)CCN1C(=O)c2cccc3cccc(c23)C1=O
- Activity [8]: 0.18 RLU

Compound: O=[N+]([O-])c1ccc2nc(-c3ccccc3)nc(-c3ccccc3)c2c1
- pEC50 [10]: 4.70

Compound: C#CCNC(=O)c1ccc(/N=N/c2ccccc2)cc1
- pEC50 [11]: 5.70
- inhibition [12]: 87%
- inhibition [13]: 87%

Compound: NCCc1cc(O)c(O)cc1O [OXIDOPAMINE HYDROCHLORIDE]
- pIC50 [14]: 5.79

Compound: [N-]=[N+]=NC[C@H]1O[C@@H](O[C@H]2[C@H](O[C@H]3O[C@H](CNC(=N)N)[C@@H](O)[C@H](O)[C@H]3NC(=N)N)[C@@H](NC(=N)N)CC[C@@H]2O)[C@H](O)[C@@H]1O[C@H]1O[C@@H](CNC(=N)N)C[C@H](O)[C@H]1NC(=N)N
- inhibition [15]: 50%
- inhibition [16]: 30%
- pKd [17]: 6.38

Compound: O=C(c1ccccc1)c1c2c3c(cccc3c3ccccc13)C(=O)C=C2
- inhibition [18]: 30%

Compound: CN1CCN(c2ccc3nc(-c4cc(C(C)(C)C)c(OCCCC(=O)NCCCN=[N+]=[N-])c(C(C)(C)C)c4)[nH]c3c2)CC1
- inhibition [19]: 90%

Compound: O=S(=O)(c1ccc2c(c1)CCCN2)N1CCC[C@H]2CCCC[C@@H]21
- pIC50 [22]: 6.22
- inhibition [23]: 47%
- Activity [24]: 0.6 RLU

Compound: NC[C@@H]1O[C@H](O[C@H]2[C@@H](O)[C@H](O[C@@H]3[C@@H](O)[C@H](N)C[C@H](N)[C@H]3O[C@H]3O[C@H](CN)[C@@H](O)[C@H](O)[C@H]3N)O[C@@H]2CSCCNC(=O)CCCCCn2cc(Oc3ccc4c(c3)C(=O)N(O)C(=O)C4)nn2)[C@H](N)[C@@H](O)[C@@H]1O
- inhibition [25]: 90%

Compound: O=[N+]([O-])c1ccc2nc(-c3ccccc3O)nc(-c3ccccc3)c2c1
- pEC50 [10]: 4.70

Compound: COc1cccc2c1C(=O)c1c(O)c3c(c(O)c1C2=O)C[C@@](O)(C(=O)CO)C[C@@H]3O[C@H]1C[C@H](N)[C@H](O)[C@H](C)O1 [DOXORUBICIN]
- pKd [2]: 7.24

Compound: CCn1cc(C(=O)O)c(=O)c2cc(F)c(N3CCNCC3)nc21 [ENOXACIN]
- pIC50 [26]: 4.52

Compound: N=C(N)NCc1ccc(Oc2ccccc2)cc1
- pIC50 [14]: < 3.00

Compound: Cc1ccc(C(=O)Nc2ccc(S(=O)(=O)O)c3cc(S(=O)(=O)O)cc(S(=O)(=O)O)c23)cc1NC(=O)c1cccc(NC(=O)Nc2cccc(C(=O)Nc3cc(C(=O)Nc4ccc(S(=O)(=O)O)c5cc(S(=O)(=O)O)cc(S(=O)(=O)O)c45)ccc3C)c2)c1 [SURAMIN]
- pIC50 [14]: 6.16

Compound: CN(C)CCN1C(=O)c2cccc3cc(N)cc(c23)C1=O [AMONAFIDE]
- pIC50 [30]: 5.52
- Activity [8]: 0.11 RLU

Compound: O=C1c2c(O)ccc(O)c2C(=O)c2c(NCCNCCO)ccc(NCCNCCO)c21 [MITOXANTRONE]
- pIC50 [31]: 5.52
- pKd [32]: 7.34
- pKd [2]: 7.48

Compound: CCCN(CC(=O)N(CCC)CC(=O)N(CC(=O)NCCCNCCCNC(=O)c1csc(-c2csc(CCNC(=O)[C@@H](NC(=O)[C@@H](C)[C@H](O)[C@@H](C)NC(=O)[C@@H](NC(=O)c3nc([C@H](CC(N)=O)NC[C@H](N)C(N)=O)nc(N)c3C)[C@@H](O[C@@H]3O[C@@H](CO)[C@@H](O)[C@H](O)[C@@H]3O[C@H]3O[C@H](CO)[C@@H](O)[C@H](OC(N)=O)[C@@H]3O)c3c[nH]cn3)[C@@H](C)O)n2)n1)Cc1cn(CCCNC(=O)CCCOc2c(C(C)(C)C)cc(-c3nc4ccc(N5CCN(C)CC5)cc4[nH]3)cc2C(C)(C)C)nn1)C(=O)CCCOc1cccc(-c2nc3ccc(-c4nc5ccc(N6CCN(C)CC6)cc5[nH]4)cc3[nH]2)c1
- pKd [1]: 7.19

Compound: O=[N+]([O-])c1ccc2nc(-c3ccccc3[N+](=O)[O-])nc(-c3ccccc3)c2c1
- pEC50 [10]: 4.70

Second part, led by results:

- pKd [1]: 6.70
Compound: CCCN(CC(=O)N(CCC)CC(=O)N(CC(N)=O)Cc1cn(CCCNC(=O)CCCOc2c(C(C)(C)C)cc(-c3nc4cc(N5CCN(C)CC5)ccc4[nH]3)cc2C(C)(C)C)nn1)C(=O)CCCOc1cccc(-c2nc3ccc(-c4nc5ccc(N6CCN(C)CC6)cc5[nH]4)cc3[nH]2)c1

- pKd [2]: 7.62
Compound: COc1cccc2c1C(=O)c1c(O)c3c(c(O)c1C2=O)C[C@@](O)(C(=O)CO)C[C@@H]3O[C@H]1C[C@H](N)[C@@H](O)[C@H](C)O1 [EPIRUBICIN]

- pIC50 [4]: 5.29
- pIC50 [5]: 5.61
- pKd [6]: 7.85
- inhibition [7]: 20%
Compound: CC(=O)Nc1csc(-c2cccc(NC(=O)CCc3cn([C@H]4O[C@@H](O[C@@H]5[C@@H](O)[C@H](N)C[C@H](N)[C@H]5O[C@H]5O[C@H](CN)[C@@H](O)[C@H](O)[C@H]5N)[C@H](O)[C@@H]4O[C@H]4O[C@@H](CN)[C@@H](O)[C@H](O)[C@H]4N)nn3)c2)n1

- pKd [9]: 3.90
Compound: CC(NS(=O)(=O)c1ccc2nc(O)c(O)nc2c1)C(=O)O (stereo unspecified)

- pKd [20]: 5.43
- pKd [21]: 5.43
Compound: NC(=O)C1=Cc2ccccc2C/C1=N/CC(=S)Nc1ccccc1

- pIC50 [22]: 5.52
- Activity [24]: 7.73 RLU
Compound: O=C(Nc1ccc2ccccc2c1)c1ccc(Cl)cc1Cl
- inhibition [23]: 48%

- pIC50 [3]: 5.33
Compound: O=C(O)c1ccc2nc3c4c(O)ccc(O)c4c(=O)c(Cl)c-3oc2c1

- Tm [27]: -2.3 °C
- pKd [28]: 6.15 and 6.10
Compound: COc1ccc(NCC(O)Cn2c3ccc(Br)cc3c3cc(Br)ccc32)cc1 (stereo unspecified)

- pIC50 [29]: 5.97
Compound: CN(c1ccccc1)C1c2ccccc2N=C(NCCCNCCCCNCCCN)C1(C)C (stereo unspecified)

- Tm [27]: -5.1 °C
- pKd [28]: 5.64
Compound: Cc1ccccc1NCC(O)Cn1c2ccc(Br)cc2c2cc(Br)ccc21 (stereo unspecified)

- pIC50 [4]: 6.27
- pIC50 [5]: 5.38
- pKd [6]: 7.85
- inhibition [7]: 20%
Compound: NC[C@@H]1O[C@H](O[C@H]2[C@@H](O)[C@H](O[C@@H]3[C@@H](O)[C@H](N)C[C@H](N)[C@H]3O[C@H]3O[C@H](CN)[C@@H](O)[C@H](O)[C@H]3N)O[C@@H]2n2cc(CCc3nc4cc(NC(=O)Nc5ccccc5)ccc4o3)nn2)[C@H](N)[C@@H](O)[C@@H]1O

- pKd [1]: 7.07
- pKd [33]: 4.52
- pIC50 [34]: 5.00
- pIC50 [35]: 7.30 and 6.70
Compound: CN1CCN(c2ccc(-c3ccc4nc(-c5cc(C(C)(C)C)c(OCCCC(=O)NCCCN=[N+]=[N-])c(C(C)(C)C)c5)[nH]c4c3)cc2)CC1

- pKd [36]: 6.14
- inhibition [37]: 25%
Compound: CNC(=O)c1cc(Oc2ccc(NC(=O)Nc3ccc(Cl)c(C(F)(F)F)c3)c(F)c2)ccn1 [REGORAFENIB]
